Assay results published in PMC4066849 (Structure (London, England : 1993), 2014).

Experiments:
Drp1 = Drp1 (Mus musculus, UniProt Q8K1M6); test: GTP hydrolysis by purified Drp1; type: biochemical
MiD51 = MiD51 (Mus musculus, UniProt Q8BGV8); test: fluorescence anisotropy equilibrium titration; type: binding
MiD51, sequence (Q8BGV8 134-463): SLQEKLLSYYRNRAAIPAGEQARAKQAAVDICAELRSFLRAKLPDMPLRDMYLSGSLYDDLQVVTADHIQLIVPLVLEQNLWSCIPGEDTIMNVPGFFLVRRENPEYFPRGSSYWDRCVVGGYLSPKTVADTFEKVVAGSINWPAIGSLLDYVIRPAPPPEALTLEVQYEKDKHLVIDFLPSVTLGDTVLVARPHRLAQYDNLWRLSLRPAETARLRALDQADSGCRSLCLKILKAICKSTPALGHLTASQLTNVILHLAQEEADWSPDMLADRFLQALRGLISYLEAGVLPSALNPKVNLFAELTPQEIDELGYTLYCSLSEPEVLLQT

Drp1, sequence (Q8K1M6 whole entry): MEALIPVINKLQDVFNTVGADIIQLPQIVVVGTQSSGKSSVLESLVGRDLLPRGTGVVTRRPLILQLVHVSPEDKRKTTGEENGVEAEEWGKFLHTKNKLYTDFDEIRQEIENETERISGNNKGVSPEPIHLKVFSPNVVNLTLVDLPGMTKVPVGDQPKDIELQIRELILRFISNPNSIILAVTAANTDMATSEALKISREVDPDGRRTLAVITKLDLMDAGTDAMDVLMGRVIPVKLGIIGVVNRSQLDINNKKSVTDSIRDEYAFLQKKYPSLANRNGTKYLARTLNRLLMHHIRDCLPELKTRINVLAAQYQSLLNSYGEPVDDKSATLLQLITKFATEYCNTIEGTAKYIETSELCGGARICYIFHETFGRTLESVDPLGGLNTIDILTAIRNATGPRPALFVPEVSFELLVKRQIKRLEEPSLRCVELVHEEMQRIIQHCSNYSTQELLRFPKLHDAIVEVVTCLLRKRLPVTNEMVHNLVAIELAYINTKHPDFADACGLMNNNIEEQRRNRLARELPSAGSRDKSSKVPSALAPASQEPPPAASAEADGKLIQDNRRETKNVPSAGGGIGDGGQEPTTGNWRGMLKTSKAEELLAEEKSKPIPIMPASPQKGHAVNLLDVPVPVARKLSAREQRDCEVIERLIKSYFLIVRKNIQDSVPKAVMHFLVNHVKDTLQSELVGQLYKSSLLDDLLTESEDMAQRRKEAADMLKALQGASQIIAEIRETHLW

| Kd (MiD51) [µM] | SMILES | GTP hydrolysis by purified Drp1 ([γ-32P]-GTP, thin-layer chromatography); abolis (Drp1) |
| --- | --- | --- |
| – | Nc1nc2c(ncn2[C@@H]2O[C@H](COP(=O)(O)OP(=O)(O)OP(=O)(O)O)[C@@H](O)[C@H]2O)c(=O)[nH]1 [GTP] | ~ 1.5 molecules of GTP per minute |
| 8 | CNc1ccccc1C(=O)O[C@H]1[C@@H](O)[C@H](n2cnc3c(=O)[nH]c(N)nc32)O[C@@H]1COP(=O)(O)OP(=O)(O)O [MANT-GDP] | – |
